# Experimental data taken from article PMC11519575 (Nature Communications, 2024).
# Key:
# VanAB = biological target: T1, VanAB (Pseudomonas putida, UniProt Q88GI6); assay: whole-cell consumption; type: cell-based; conditions: R. eutropha H16 expressing vanAB, sole carbon source, 30 °C
# T1 sequence (Q88GI6 1-355): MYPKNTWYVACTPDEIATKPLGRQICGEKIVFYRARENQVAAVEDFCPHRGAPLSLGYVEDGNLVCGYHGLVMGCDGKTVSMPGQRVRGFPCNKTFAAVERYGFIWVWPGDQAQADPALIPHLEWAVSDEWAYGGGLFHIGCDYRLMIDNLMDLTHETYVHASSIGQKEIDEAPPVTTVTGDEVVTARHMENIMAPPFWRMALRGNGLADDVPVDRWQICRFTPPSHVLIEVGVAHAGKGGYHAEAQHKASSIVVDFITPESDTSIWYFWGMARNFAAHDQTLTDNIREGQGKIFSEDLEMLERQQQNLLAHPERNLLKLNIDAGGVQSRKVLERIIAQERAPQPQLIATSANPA
# T1 sequence (Q88GI5 1-316 partner): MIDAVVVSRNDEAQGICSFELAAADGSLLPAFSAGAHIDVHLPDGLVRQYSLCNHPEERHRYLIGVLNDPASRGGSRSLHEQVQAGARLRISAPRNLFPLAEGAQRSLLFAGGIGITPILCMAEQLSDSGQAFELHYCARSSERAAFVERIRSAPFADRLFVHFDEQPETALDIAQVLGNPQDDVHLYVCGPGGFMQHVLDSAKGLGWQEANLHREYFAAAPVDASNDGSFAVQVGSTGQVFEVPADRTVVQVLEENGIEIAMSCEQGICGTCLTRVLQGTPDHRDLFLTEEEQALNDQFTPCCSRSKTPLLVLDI
# LigM = LigM (Sphingobium sp. SYK-6, UniProt G2IQS7); assay: whole-cell consumption; type: cell-based; conditions: tetrahydrofolate cofactor; with ligH and metF in R. eutropha H16
# Sequence of LigM (G2IQS7 whole entry): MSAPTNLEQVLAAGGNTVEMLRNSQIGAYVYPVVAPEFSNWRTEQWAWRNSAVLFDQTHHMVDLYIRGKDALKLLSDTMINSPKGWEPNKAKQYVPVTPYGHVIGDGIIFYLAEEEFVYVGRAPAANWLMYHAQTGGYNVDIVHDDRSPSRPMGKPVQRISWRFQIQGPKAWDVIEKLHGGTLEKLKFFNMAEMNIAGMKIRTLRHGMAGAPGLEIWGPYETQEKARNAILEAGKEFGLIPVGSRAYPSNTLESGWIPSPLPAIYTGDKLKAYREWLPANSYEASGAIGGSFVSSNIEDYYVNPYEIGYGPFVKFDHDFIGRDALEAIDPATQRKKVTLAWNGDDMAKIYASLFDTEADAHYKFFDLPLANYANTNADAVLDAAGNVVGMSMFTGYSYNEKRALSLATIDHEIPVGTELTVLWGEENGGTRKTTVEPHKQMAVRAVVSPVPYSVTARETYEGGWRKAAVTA
structure (smiles),measurement,setting,value
COc1cc(C(=O)O)ccc1O [vanillic acid],whole-cell consumption (HPLC) and growth,VanAB,expression of vanAB could enable the strain to use vanillic acid
same,whole-cell consumption (HPLC) and growth,LigM,the demethylation process of the optimized LigM system is still the main rate-limiting step
